Data on eight compounds can be found in paper PMC7092840 (Biochemical Pharmacology, 2011).

Like-named read-outs stand apart in the source and are kept apart here. Marks after values point to notes of the source that are not given here. Bounds are passed on as bounds.

One may read the solubility as the concentration that dissolves in the medium under given conditions.

In series [1] the test system is BHK cells. In words: Distribution of LBPA-positive structures, confocal morphometry. In kind it is cell-based. Conditions: 16 h; for LBPA-positive structures Diameter / LBPA-positive structures N°/cell profile: BHK cells, 10 μM analogue, M ± SE; for LBPA-positive structures Diameter: control 1.46 ± 0.02; for LBPA-positive structures N°/cell profile: control 28.6 ± 1.1.

Another series concerns blood monocytes. In words: Transferrin recycling. Type of series: cell-based. Conditions: human monocytes, 10 μM.
The subject of a further series is K562 cells. Kind of series: Exosome release. Conditions: 10 μM, 16 h, N = 7, change not significant.
Series [2] relates to HIV-1 VLP budding from 293T cells. In kind it is cell-based, human immunodeficiency virus type 1.
Series [3] deals with BHK cells. In words: Cell cholesterol content. Particulars: 10 μM, 16 h, p = 0.03, N = 5.
The subject of series [4] is early endosomes from BHK cells.
A further series has as its system Vero cells. Type of series: cell-based.
Series [5] deals with feline immunodeficiency virus (FIV) VLP budding from 293T cells. In kind it is cell-based.
Series [6] can be described thus: Aqueous solubility of hydrochloride salt. Particulars: for Aqueous solubility of hydrochloride salt At pH 5.0 / Aqueous solubility of hydrochloride salt At pH 7.4 / solubility: 22 °C; for Aqueous solubility of hydrochloride salt At pH 5.0: 5 mM K2PO4 adjusted to pH 5.0, methanol as cosolvent; for Aqueous solubility of hydrochloride salt At pH 7.4: 5 mM K2PO4 adjusted to pH 7.4, methanol as cosolvent; for pKa × solubility in water at pH 5.0: product of calculated pKa and solubility at pH 5.0; for solubility: phosphate buffer. In kind it is physicochemical.

For series [7] the following is noted: ref http://www.patentstorm.us/patents/6939865/description.html; cited from earlier work.
For series [8] the following is noted: ref [27]; cited from earlier work.
Series [9] concerns BHK cells. Kind of series: Cell viability / tolerated concentration. Type of series: cell-based.
The mark [10] stands for this setting: 10 μM, 5 independent experiments, p < 0.01.

For the compound `CCCCc1oc2ccccc2c1C(=O)c1cc(I)c(OCCN(CC)CC)c(I)c1` [AMI, Amiodarone], in the series on BHK cells [1] (setting [10]), the “decrease in number of LBPA-rich structures per cell profile” value was determined as 69.0 ± 4.5% and the “increase in diameter of LBPA-rich structures” value is listed as 42.6 ± 5.2%. In addition, in the series with BHK cells [1], the “LBPA-positive structures Diameter” value came out at 2.01 ± 0.03 μm and the “LBPA-positive structures N°/cell profile” value worked out at 5.2 ± 0.4. Moreover, in the series with blood monocytes, the “effect on transferrin recycling” value was “no effect”. Besides, in the series with K562 cells, the “decrease in secreted acetylcholinesterase with respect to control cells” value is on record as 12.0 ± 8.7%. The “release of mature VLPs (HIV-1)” value in [2] is “did not inhibit the release of mature VLPs”. Moreover, the “increase in cell cholesterol” value with BHK cells [3] is given as 17.3 ± 5.2%. Besides, the “change in endosome-associated fluorescence” value in series [4] is “no change”. For the same compound, the “effect on activity of Shiga toxin” value in the series with Vero cells is on record as “not decreased”. In series [5], the “release of mature VLPs (FIV)” value is “did not inhibit the release of mature VLPs”.
For the compound `CCCCc1oc2ccccc2c1C(=O)c1cc(I)c(OCCN(C(C)C)C(C)C)c(I)c1.Cl` [DIPAM, (2-butyl-benzofuran-3-yl)-4-[2-(diisopropylamino)ethoxy]-3,5-diiodophenyl-methanone·hydrochloride], in the series on BHK cells [1], the “LBPA-positive structures Diameter” value amounted to 1.64 ± 0.04 μm and the “LBPA-positive structures N°/cell profile” value is recorded as 24.6 ± 3.0. Moreover, in series [6], the “Aqueous solubility of hydrochloride salt At pH 5.0” value is recorded as 0.23 ^b μM, the “Aqueous solubility of hydrochloride salt At pH 7.4” value was 0.014 ^b μM and the “pKa × solubility in water at pH 5.0” value is reported as 2.07.
`CCCCc1oc2ccc(NS(C)(=O)=O)cc2c1C(=O)c1ccc(OCCCN(CCCC)CCCC)cc1` [DRO, Dronedarone]: the “Aqueous solubility of hydrochloride salt At pH 7.4” value in series [7] was <0.001 ^c μM. For the same compound, in series [8], the “serum levels, times lower than in patients treated with amiodarone” value is listed as “over 10 times”. Moreover, the “highest concentration tolerated by transfected cells” value in the series with BHK cells [9] (BHK cells transiently transfected with pEGFP-LC3, 16 h) came out at 2 µM. Besides, the “concentration toxic to cells” value in the series with BHK cells [9] (BHK cells, 16 h) was over 5 µM.
Regarding `CCCCc1oc2ccccc2c1C(=O)c1cc(I)c(OCCNCC)c(I)c1` [MDEA, 2-n-butyl-3-(3,5-diiodo-4-ethylaminoethoxybenzoyl)-benzofuran, reference compound], the solubility in series [6] (pH 5) turned out to be 12 µM; in series [6] (pH 7.4) it was 0.11 µM.
Take `CCCCc1oc2ccccc2c1C(=O)c1cc(I)c(OCCN2CCOCC2)c(I)c1` [MOPAM, 2-n-butyl-3-(3,5-diiodo-4-β-Nmorpholinoethoxybenzoyl)benzofuran]: in the series with BHK cells [1], the “LBPA-positive structures Diameter” value stood at 1.45 ± 0.02 μm and the “LBPA-positive structures N°/cell profile” value turned out to be 29.3 ± 0.6. In addition, in series [6], the “Aqueous solubility of hydrochloride salt At pH 5.0” value is given as 0.17 ^b μM, the “Aqueous solubility of hydrochloride salt At pH 7.4” value is listed as 0.015 ^b μM and the “pKa × solubility in water at pH 5.0” value was 0.55.
The corresponding values for `CCCCc1oc2ccccc2c1C(=O)c1cc(I)c(OCCN(C)C)c(I)c1` [MeAMI, (2-butyl-benzofuran-3-yl)-4-[2-(dimethylamino-ethoxy)-3,5-diiodophenyl]methanone] are 2.45 ± 0.08 μm, 4.5 ± 0.6, 2.21 ^b μM, 0.051 ^b μM and 17.50.
As to `CCCCc1oc2ccccc2c1C(=O)c1cc(I)c(OCCN2CCCCC2)c(I)c1.Cl` [PIPAM, 4-(2-butyl-benzofuran-3-yl)-[3,5-diiodophenyl-4-(2-piperidinoethoxy)phenyl] methanone·hydrochloride], in the series with BHK cells [1], the “LBPA-positive structures Diameter” value is 1.73 ± 0.03 μm and the “LBPA-positive structures N°/cell profile” value came to 14.7 ± 2.1. Further, in series [6], the “Aqueous solubility of hydrochloride salt At pH 5.0” value is 2.22 ^b μM, the “Aqueous solubility of hydrochloride salt At pH 7.4” value was 0.023 ^b μM and the “pKa × solubility in water at pH 5.0” value is given as 11.88.
For the compound `CCCCc1oc2ccccc2c1C(=O)c1cc(I)c(OCCN2CCCC2)c(I)c1.Cl` [PYRAM, 4-(2-butyl-benzofuran-3-yl)-[3,5-diiodophenyl-4-(2-pyrrolidin-1-yl-ethoxy)phenyl]-methanone·hydrochloride], in the series on BHK cells [1], the “LBPA-positive structures Diameter” value is listed as 2.08 ± 0.05 μm and the “LBPA-positive structures N°/cell profile” value is given as 7.6 ± 0.6. Moreover, in series [6], the “Aqueous solubility of hydrochloride salt At pH 5.0” value was 1.86 ^b μM, the “Aqueous solubility of hydrochloride salt At pH 7.4” value is given as 0.049 ^b μM and the “pKa × solubility in water at pH 5.0” value is on record as 9.22.
